Results reported in US9085555B2, “Complement pathway modulators and uses thereof” (priority 2011, dated 2015).

target: Factor D (Homo sapiens (Human), UniProt P00746); test: biochemical; type: biochemical; settings: read-out: IC50
Sequence (P00746 26-253): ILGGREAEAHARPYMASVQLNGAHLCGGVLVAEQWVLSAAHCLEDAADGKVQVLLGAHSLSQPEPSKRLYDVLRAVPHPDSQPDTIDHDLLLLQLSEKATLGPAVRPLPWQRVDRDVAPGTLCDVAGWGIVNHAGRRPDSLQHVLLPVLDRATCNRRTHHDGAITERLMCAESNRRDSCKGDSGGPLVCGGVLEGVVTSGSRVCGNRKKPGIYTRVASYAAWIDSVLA

| Compound | IC50 [µM] |
| --- | --- |
| CC[C@@H]1CC[C@@H](C(=O)NCc2cccc(Cl)c2F)N1C(=O)Nc1cn(C(N)=O)c2ccccc12 [Example 351, 2S,5R)-5-Ethyl-pyrrolidine-1,2-dicarboxylic acid 1-[(1-carbamoyl-1H-indol-3-yl)-amide]2-(3-chloro-2-fluoro-benzylamide] | 0.6 |
| NC(=O)n1cc(NC(=O)N2C[C@H](CO)C[C@H]2C(=O)NCc2cccc(Cl)c2F)c2ccccc21 [Example 352, 2S,4R)-4-Hydroxymethyl-pyrrolidine-1,2-dicarboxylic acid 1-[(1-carbamoyl-1H-indol-3-yl)-amide]2-(3-chloro-2-fluoro-benzylamide] | 0.2 |
| COC(=O)[C@H]1C[C@@H](C(=O)NCc2c(F)ccc(Cl)c2F)N(C(=O)Nc2cn(C(N)=O)c3ccccc23)C1 [Example 353, (3S,5S)-1-(1-carbamoyl-1H-indol-3-ylcarbamoyl)-5-(3-chloro-2,6-difluoro-benzylcarbamoyl)-pyrrolidine-3-carboxylic acid methyl ester] | 0.252 |
| NC(=O)n1cc(NC(=O)N2C[C@@H](C(=O)O)C[C@H]2C(=O)NCc2c(F)ccc(Cl)c2F)c2ccccc21 [Example 354, (3S,5S)-1-(1-Carbamoyl-1H-indol-3-ylcarbamoyl)-5-(3-chloro-2,6-difluoro-benzylcarbamoyl)-pyrrolidine-3-carboxylic acid] | 1.66 |
| NC(=O)n1cc(NC(=O)N2C[C@@H](CO)C[C@H]2C(=O)NCc2cccc(Br)c2F)c2ccccc21 [Example 355, (2S,4S)-4-Hydroxymethyl-pyrrolidine-1,2-dicarboxylic acid 2-(3-bromo-2-fluoro-benzylamide) 1-[(1-carbamoyl-1H-indol-3-yl)-amide]] | 0.104 |
| NC(=O)n1cc(NC(=O)N2C[C@](F)(CO)C[C@H]2C(=O)NCc2cccc(Cl)c2F)c2ccccc21 [Example 356, 2S,4S)-4-Fluoro-4-hydroxymethyl-pyrrolidine-1,2-dicarboxylic acid 1-[(1-carbamoyl-1H-indol-3-yl)-amide]2-(3-chloro-2-fluoro-benzylamide] | 0.48 |
| NC(=O)n1cc(NC(=O)N2[C@H]3C[C@@]3(CO)C[C@H]2C(=O)NCc2cccc(Cl)c2F)c2ccccc21 [Example 357, 1S,3S,5R)-5-Hydroxymethyl-2-aza-bicyclo[3.1.0]hexane-2,3-dicarboxylic acid 2-[(1-carbamoyl-1H-indol-3-yl)-amide]3-(3-chloro-2-fluoro-benzylamide] | 0.389 |
| NC(=O)n1cc(NC(=O)N2[C@H](C(=O)NCc3cccc(Cl)c3F)C[C@@]3(CO)C[C@@H]23)c2ccccc21 [Example 358, 1R,3S,5S)-5-Hydroxymethyl-2-aza-bicyclo[3.1.0]hexane-2,3-dicarboxylic acid 2-[(1-carbamoyl-1H-indol-3-yl)-amide]3-(3-chloro-2-fluoro-benzylamide] | 0.008 |
| NC(=O)n1cc(NC(=O)N2C[C@@H](C(F)F)C[C@H]2C(=O)NCc2cccc(Cl)c2F)c2ccccc21 [Example 359, 2S,4S)-4-Difluoromethyl-pyrrolidine-1,2-dicarboxylic acid 1-[(1-carbamoyl-1H-indol-3-yl)-amide]2-(3-chloro-2-fluoro-benzylamide] | 0.25 |
| NC(=O)n1cc(NC(=O)N2[C@@H](CO)CC[C@H]2C(=O)Nc2cccc(OC(F)(F)F)c2)c2ccccc21 [Example 360, (2S,5R)-5-Hydroxymethyl-pyrrolidine-1,2-dicarboxylic acid 1-[(1-carbamoyl-1H-indol-3-yl)-amide]2-[(3-trifluoromethoxy-phenyl)-amide]] | 1 |
| NC(=O)n1cc(NC(=O)N2N=CCC2C(=O)NCc2cccc(Cl)c2)c2ccccc21 (stereo not drawn) [Example 361, 4,5-Dihydro-pyrazole-1,5-dicarboxylic acid 1-[(1-carbamoyl-1H-indol-3-yl)-amide]5-(3-chloro-benzylamide)] | 0.025 |
| O=C(Nc1cccc(OC(F)(F)F)c1)[C@@H]1CCCN1C(=O)Nc1cn(C(=O)CO)c2ccccc12 [Example 366, (S)-Pyrrolidine-1,2-dicarboxylic acid 1-{[1-(2-hydroxy-acetyl)-1H-indol-3-yl]-amide}2-[(3-trifluoromethoxy-phenyl)-amide]] | 3.25 |
| CC(=O)n1cc(NC(=O)N2CCC[C@H]2C(=O)Nc2cccc(OC(F)(F)F)c2)c2ccc(C#N)cc21 [Example 367, (S)-Pyrrolidine-1,2-dicarboxylic acid 1-[(1-acetyl-6-cyano-1H-indol-3-yl)-amide]2-[(3-trifluoromethoxy-phenyl)-amide]] | 7.95 |
| CC(=O)n1cc(NC(=O)N2C[C@H](F)C[C@H]2C(=O)NCc2cccc(Cl)c2F)c2ccc(OC(F)F)cc21 [Example 368, 2S,4R)-4-Fluoro-pyrrolidine-1,2-dicarboxylic acid 1-[(1-acetyl-6-difluoromethoxy-1H-indol-3-yl)-amide]2-(3-chloro-2-fluoro-benzylamide] | 0.066 |
| NC(=O)n1cc(NC(=O)N2CCC[C@H]2C(=O)Nc2cccc(OC(F)(F)F)c2)c2ccc(O)cc21 [Example 369, (S)-Pyrrolidine-1,2-dicarboxylic acid 1-[(1-carbamoyl-6-hydroxy-1H-indol-3-yl)-amide]2-[(3-trifluoromethoxy-phenyl)-amide]] | 0.85 |
| NC(=O)n1cc(NC(=O)N2CCC[C@H]2C(=O)Nc2cccc(OC(F)(F)F)c2)c2cc(O)ccc21 [Example 370, (S)-Pyrrolidine-1,2-dicarboxylic acid 1-[(1-carbamoyl-5-hydroxy-1H-indol-3-yl)-amide]2-[(3-trifluoromethoxy-phenyl)-amide]] | 0.095 |
| NC(=O)n1cc(NC(=O)N2[C@@H]3C[C@@H]3C[C@H]2C(=O)NCc2cccc(Cl)c2F)c2cc(O)ccc21 [Example 371, (1R,3S,5R)-2-aza-bicyclo[3.1.0]hexane-2,3-dicarboxylic acid 2-[(1-carbamoyl-5-hydroxy-1H-indol-3-yl)-amide]3-(3-chloro-2-fluoro-benzylamide)] | 0.003 |
| NC(=O)n1cc(NC(=O)N2[C@@H]3C[C@@H]3C[C@H]2C(=O)NCc2ccccc2F)c2cc(O)ccc21 [Example 372, (1R,3S,5R)-2-Aza-bicyclo[3.1.0]hexane-2,3-dicarboxylic acid 2-[(1-carbamoyl-5-hydroxy-1H-indol-3-yl)-amide]3-(2-fluoro-benzylamide)] | 0.045 |
| N#CCOc1ccc2c(c1)c(NC(=O)N1[C@@H]3C[C@@H]3C[C@H]1C(=O)NCc1cccc(Cl)c1F)cn2C(N)=O [Example 373, 1R,3S,5R)-2-Aza-bicyclo[3.1.0]hexane-2,3-dicarboxylic acid 2-[(1-carbamoyl-5-cyanomethoxy-1H-indol-3-yl)-amide]3-(3-chloro-2-fluoro-benzylamide] | 0.001 |
| NC(=O)n1cc(NC(=O)N2[C@@H]3C[C@@H]3C[C@H]2C(=O)NCc2cccc(Cl)c2F)c2cc(OCC(=O)O)ccc21 [Example 374, (1-Carbamoyl-3-{[(1R,3S,5R)-3-(3-chloro-2-fluoro-benzylcarbamoyl)-2-aza-bicyclo[3.1.0]hexane-2-carbonyl]-amino}-1H-indol-5-yloxy)-acetic acid] | 0.003 |
| C[C@@]1(F)C[C@@H](C(=O)NCc2cccc(Cl)c2F)N(C(=O)Nc2cn(C(N)=O)c3ccc(OCC(=O)O)cc23)C1 [Example 375, (1-Carbamoyl-3-{[(2S,4R)-2-(3-chloro-2-fluoro-benzylcarbamoyl)-4-fluoro-4-methyl-pyrrolidine-1-carbonyl]-amino}-1H-indol-5-yloxy)-acetic acid] | 0.002 |
